Assay results reported in PubChem BioAssay AID1996.
Values after ≈ are worked out from the molar mass of the structure shown.

Settings: buffer; pH 7.4; 200.0 µM

SMILES | solubility kinetic
CC(=O)Nc1ccc(Oc2cncc(Cl)c2)nc1 | > 39.6 µg/mL
COC(=O)CNC(c1ccccc1)c1cc(Br)ccc1N (stereo not given) | 5.5 µg/mL (≈ 15.7 µM)
COc1cc2sc(C)nc2cc1C | 4.8 µg/mL (≈ 24.8 µM)
COc1ccccc1N1CCN(C(=O)c2cccs2)CC1 | > 45.4 µg/mL
COc1cccc(N2CN(CCc3ccccc3)CNC2=S)c1 | 9.8 µg/mL (≈ 29.9 µM)
COc1ccccc1N1C(=O)c2ccccc2NC1c1ccc(O)cc1 (stereo not given) | 12.8 µg/mL (≈ 37 µM)
Cc1ccc(NC(=O)CC(=O)Nc2ccc(C)cc2)cc1 | < 0.3 µg/mL
Cc1occc1C(=O)Nc1c(Cl)cccc1Cl | 37.1 µg/mL (≈ 137 µM)
O=C(COC(=O)c1cc2ccccc2cc1O)NCc1ccccc1 | 3 µg/mL (≈ 8.95 µM)
COc1ccc(CN(C)CC(=O)N2CCc3ccccc3C2)cc1 | > 48.7 µg/mL
CCOc1cc(C(=O)N2CCCN(C)CC2)cc(OCC)c1OCC | > 52.6 µg/mL
O=C(CSCc1ccccc1)Nc1ccccc1 | > 38.6 µg/mL
Cc1cccc([N+](=O)[O-])c1NC(=O)COC(=O)C1CCCO1 (stereo not given) | > 46.2 µg/mL
CC(=O)c1cccc(NC(=O)c2cc(=O)c3ccccc3o2)c1 | < 0.7 µg/mL
N#Cc1cccc(NC(=O)CCNC(=O)c2ccccc2Cl)c1 | > 49.2 µg/mL
CCCCNS(=O)(=O)c1ccc(NC(=O)c2cccs2)cc1 | 1 µg/mL (≈ 2.95 µM)
CC1CCCCC1NC(=O)CNC(=O)c1cccs1 (stereo not given) | > 42.1 µg/mL
Cc1cccnc1NC(=S)Nc1ccc(Cl)c(Cl)c1 | 3.7 µg/mL (≈ 11.9 µM)
CN1C(=O)C(CC(=O)O)S/C1=N\N=C\c1ccc(O)cc1O (stereo not given) | > 48.5 µg/mL
c1ccc(P(c2ccccn2)c2ccccn2)cc1 | > 39.6 µg/mL
CCN1CSC(=S)N(Cc2ccc(OC)cc2)C1 | 38.6 µg/mL (≈ 137 µM)
Cc1nonc1OC(C)CNCCNc1ccc([N+](=O)[O-])cc1.Cl (stereo not given) | > 53.7 µg/mL
OC1/C(=C/c2ccc(C(F)(F)F)cc2)N2CCC1CC2 (stereo not given) | 41.5 µg/mL (≈ 146 µM)
Cc1cccc(C(=O)OCC(=O)N2CC(C)CC(C)C2)c1C (stereo not given) | > 45.5 µg/mL

SMILES | solubility kinetic
Cc1cc(Cl)nc(NC(=O)Nc2cccc(Cl)c2)n1 | < 0.2 µg/mL
Cc1ccc(NC(=O)CN2CCOCC2)cc1 | > 35.1 µg/mL
O=c1c2ccccc2ncn1-c1ccc([N+](=O)[O-])cc1Cl | 17 µg/mL (≈ 56.3 µM)
O=C(CN1CCC(C(=O)O)CC1)Nc1ccccc1Oc1ccccc1 | 47.5 µg/mL (≈ 134 µM)
CN(C)c1nc(N(C)C)nc(N(C#N)Cc2ccc(Cl)cc2)n1 | 0.3 µg/mL (≈ 0.904 µM)
O=C(O)CC(c1ccccc1F)N1Cc2ccccc2C1=O (stereo not given) | 43.7 µg/mL (≈ 146 µM)
O=C1c2ccccc2C(=O)N1CCOc1ccccc1Cl | 3.5 µg/mL (≈ 11.6 µM)
CCC/C(O)=C1\C(=O)CCCC1=NCCc1c(C)[nH]c2ccc(C)cc12 | 0.4 µg/mL (≈ 1.13 µM)
Cc1ccc(S(=O)(=O)Nc2cccnc2)cc1C | 10.7 µg/mL (≈ 40.8 µM)
O=C(Nc1ccc(Cl)c(S(=O)(=O)N2CCOCC2)c1)C1CCCC1 | > 55.9 µg/mL
COc1cc(C)c(CN2CC=C(c3ccc(F)cc3)CC2)cc1C | 8.5 µg/mL (≈ 26.1 µM)
O=C(CCSc1ccccc1)Nc1ccccc1Br | 6.6 µg/mL (≈ 19.6 µM)
CN(C)C(=O)C(NC(=O)c1ccccc1)=C(Cl)Cl | 42 µg/mL (≈ 146 µM)
CN1C(=O)/C(=C\c2ccc(N3CCCCCC3)cc2)C(=O)NC1=S | 2.7 µg/mL (≈ 7.86 µM)
COC(=O)c1ccsc1-n1cc(C#N)c(=O)n(C)c1=O | > 43.7 µg/mL
CCC(OC(=O)CN1C(=O)c2ccccc2C1=O)C(=O)NC1CCCC1 (stereo not given) | 52.1 µg/mL (≈ 145 µM)
CCN(Cc1cnn(C)c1)Cc1nc(Cc2ccccc2Cl)no1 | > 51.9 µg/mL
CCOC(=O)C1=C(C)NC(C)=C(C(=O)OC)C1c1ccco1 (stereo not given) | 34.1 µg/mL (≈ 112 µM)
N/C(=N\OC(=O)c1cccs1)c1cccc(Br)c1 | 8.5 µg/mL (≈ 26.1 µM)
CC1CCC/C(=C\Nc2ccc(C(=O)O)c(O)c2)C1=O (stereo not given) | 39.4 µg/mL (≈ 143 µM)
CCCc1cc(NCCCO)n2c(nc3ccccc32)c1C#N | 3.3 µg/mL (≈ 10.7 µM)
O=C(CSc1nc2ccccc2o1)N/N=C/c1ccc(C(=O)O)cc1 | > 53.3 µg/mL
CCOc1ccc(Nc2ccnc3cc(Cl)ccc23)cc1 | < 0.3 µg/mL
CNC(=O)c1cc2cc(Cc3ccccc3Cl)ccc2oc1=O | < 0.7 µg/mL

SMILES | solubility kinetic
COc1ccc(-c2cc(C(F)(F)F)nc(N)n2)cc1 | 1.4 µg/mL (≈ 5.2 µM)
O=C(Nc1ccc(NC(=O)c2cccs2)cc1Cl)c1ccco1 | 1.1 µg/mL (≈ 3.17 µM)
CC1CCCCN1C(=O)c1ccc(C(=O)c2ccccc2)cc1 (stereo not given) | > 46.1 µg/mL
CC1=N/C(=C\c2ccccc2Cl)C(=O)O1 | 27.7 µg/mL (≈ 125 µM)
O=C(COC(=O)CCC1CCCC1)NCc1ccc(Cl)cc1 | < 0.7 µg/mL
CCn1cc(C(=O)NCCC(=O)NCCCO)c(=O)c2cc3c(cc21)OCO3 | > 58.4 µg/mL
O=CN1CCN(C(=O)c2ccc(Br)o2)CC1 | > 43.1 µg/mL
CN1CC(C(=O)Nc2ccc(F)c(Cl)c2)CC1=O (stereo not given) | > 40.6 µg/mL
Cn1c(=O)n(C)c2cc([N+](=O)[O-])c(N3CCNCC3)cc21 | > 43.7 µg/mL
Cc1ccc(CNC(=O)COC(=O)c2cc(=O)[nH]c3ccccc23)cc1 | 5.5 µg/mL (≈ 15.7 µM)
COc1cc([N+](=O)[O-])cc2sc(NC(=O)C(C)(C)C)nc12 | < 0.2 µg/mL
O=C(OCC(=O)N1CCc2ccccc2C1)c1c(F)cccc1Cl | 31.8 µg/mL (≈ 91.4 µM)
CC12CCC(=O)N1C(C(=O)Nc1ccccc1F)CS2 (stereo not given) | > 44.2 µg/mL
C=CCn1cnc2c(sc3nc(C)cc(C)c32)c1=O | 6.9 µg/mL (≈ 25.4 µM)
Cc1cccc(NC(=S)Nc2ccccn2)c1 | 1.6 µg/mL (≈ 6.58 µM)
O=C(Nc1ccc(Br)cc1)C1CC(c2c(F)cccc2Cl)=NO1 (stereo not given) | 6.7 µg/mL (≈ 16.8 µM)
CC(=O)c1ccc(NC(=O)CN2C(=O)NC3(CCCc4ccccc43)C2=O)cc1 (stereo not given) | > 58.7 µg/mL
COC(=O)CN1C(=O)N/C(=C/c2cc(OC)c(OC)cc2C)C1=O | 46.9 µg/mL (≈ 140 µM)
N/C(CN1CCCCC1)=N\S(=O)(=O)c1cc(Cl)cc(Cl)c1 | 3.7 µg/mL (≈ 10.6 µM)
CC(=O)c1cccc(NC(=O)CN2C(=O)NC(C)(C)C2=O)c1 | > 45.5 µg/mL
CC1C(=O)N2CCCc3cc(NS(C)(=O)=O)cc1c32 (stereo not given) | 40.3 µg/mL (≈ 144 µM)
Cc1nc2ccccc2nc1OCC(=O)Nc1ccc(F)cc1 | 33 µg/mL (≈ 106 µM)
Cc1ccc(C(C)C)cc1S(=O)(=O)NC1CC(C)(C)NC(C)(C)C1 | 35.2 µg/mL (≈ 99.8 µM)
Cc1ccccc1C(=O)OCc1cnc(Cl)s1 | 1.4 µg/mL (≈ 5.23 µM)

SMILES | solubility kinetic
Cc1cc(C)cc(OCC(=O)Nc2nc(-c3ccccn3)cs2)c1 | 1.2 µg/mL (≈ 3.54 µM)
COCCNC(=S)Nc1ccccc1[N+](=O)[O-] | > 38.3 µg/mL
O=C(Nc1ccccc1)N1CCCN(c2c(Cl)cncc2Cl)CC1 | 10.9 µg/mL (≈ 29.8 µM)
COc1ccc(C)cc1NC(=O)c1ccc(OCc2c(C)noc2C)cc1 | 0.9 µg/mL (≈ 2.46 µM)
COc1ccccc1N(C)S(=O)(=O)c1ccc(C(=O)Nc2ccc(C(N)=O)cc2)cc1 | 6.1 µg/mL (≈ 13.9 µM)
O=C(Cc1ccc(Br)cc1)OCC(=O)N1CCOCC1 | > 51.3 µg/mL
CCC(CC)C(=O)c1c[nH]c(C(=O)NC2CCCCCC2)c1 | 2 µg/mL (≈ 6.57 µM)
COc1ccc(CNC(=O)c2ccc(Br)cc2)cc1 | 4.1 µg/mL (≈ 12.8 µM)
O=C(Nc1nccs1)[C@@H]1CCCN1S(=O)(=O)c1ccc(Cl)cc1 | 31.5 µg/mL (≈ 84.7 µM)
Cn1c(=S)[nH]c2scc(-c3cccs3)c2c1=O | > 42.1 µg/mL
CCN(CC)S(=O)(=O)c1ccc2[nH]c(=O)c3ccccc3c2c1 | < 0.4 µg/mL
COCCNC(=S)N(C)C1(c2ccccc2Cl)CCCCC1=O (stereo not given) | 48.2 µg/mL (≈ 136 µM)
COC(=O)C(Cc1ccccc1)NC(=O)CC(C)CC(=O)Nc1ccc(C)cc1 (stereo not given) | 14.3 µg/mL (≈ 36.1 µM)
O=C(/C=C/c1ccc(-c2ccccc2)cc1)NCc1cccnc1 | < 0.3 µg/mL
O=C1NC(=O)/C(=C/c2cc3c(cc2Br)OCO3)S1 | > 49.2 µg/mL
CCSc1ccccc1C(=O)NCc1cccnc1 | > 40.9 µg/mL
CC(NC(=O)c1ccco1)C(=O)N1CC=C(c2ccccc2)CC1 (stereo not given) | > 48.7 µg/mL
COc1cccc(NC(=O)C2C(c3ccccc3)C2(Cl)Cl)c1 (stereo not given) | 7 µg/mL (≈ 20.8 µM)
COCc1nc2oc3ccc(C)cc3c(=O)c2cc1C(=O)OC | 3.9 µg/mL (≈ 12.4 µM)
COc1ccc(CCC(C)NCc2ccc(C(F)(F)F)cc2)cc1 (stereo not given) | 30.5 µg/mL (≈ 90.4 µM)
COC(=O)c1ccc(COC(=O)CSCC(=O)Nc2ccc(C)cc2C)cc1 | 16 µg/mL (≈ 39.9 µM)
O=C(Nc1ccc(NC(=O)c2ccco2)nc1)c1cccc(F)c1 | 1.9 µg/mL (≈ 5.84 µM)
COc1ccccc1/C=C1\SC(N2CCC(C)CC2)=NC1=O | 35 µg/mL (≈ 111 µM)
CCOC(=O)C1CCN(C(=O)COC(=O)/C=C/c2cccc(OC)c2OC)CC1 | 60.5 µg/mL (≈ 149 µM)

SMILES | solubility kinetic
Nc1cc(N)nc(SCC(=O)Nc2ccc3c(c2)OCO3)n1 | 47.2 µg/mL (≈ 148 µM)
Cc1ccc(N2C(=O)CC(NCC3CCCO3)C2=O)cc1 (stereo not given) | > 43.3 µg/mL
CCc1ccc(CCC(=O)Nc2ccc(Br)cc2)o1 | 4.4 µg/mL (≈ 13.7 µM)
CN(C(=O)CSc1nc2c(c(=O)[nH]1)CCC2)c1ccccc1 | > 47.3 µg/mL
CC(=O)Nc1cccc(NC(=O)CCNC(=O)c2ccccc2)c1 | > 48.8 µg/mL
CC1(C)CC(=O)C2=C(C1)Nc1ccccc1NC2c1ccccc1F (stereo not given) | 10.5 µg/mL (≈ 31.2 µM)
C=CCN1C(=O)C(=O)N(Cc2nc3ccccc3s2)C1=O | > 45.2 µg/mL
Cc1cccc(NC(=S)NCc2ccc(F)cc2)c1C | 35.2 µg/mL (≈ 122 µM)
Cl.NCC(O)c1ccc(O)cc1 (stereo not given) | > 28.4 µg/mL
COc1ccc(C(CNS(=O)(=O)c2cccc(F)c2)N2CCCC2)cc1.Cl (stereo not given) | > 62.2 µg/mL
CCC(=O)Nc1cccc2cccnc12 | 25 µg/mL (≈ 125 µM)
CCN(C(=O)COC(=O)c1[nH]c(=O)[nH]c(=O)c1N)c1ccccc1 | 39.3 µg/mL (≈ 118 µM)
Cc1cccc(/N=C/C2=C(O)CC(C)(C)CC2=O)n1 | > 38.7 µg/mL
O=S(=O)(c1cnc(Cl)c(Cl)c1)N1CCN(c2ncccn2)CC1 | 0.4 µg/mL (≈ 1.07 µM)
O=C(CCN1C(=O)C2C3CCC(C3)C2C1=O)OCC(=O)c1ccc(Cl)cc1 (stereo not given) | > 58.5 µg/mL
COC(=O)c1ccc(/C=C2\Oc3ccccc3NC2=O)cc1 | 1 µg/mL (≈ 3.39 µM)
COC(=O)c1cc(NC(=O)c2ccc(F)cc2)cc(C(=O)OC)c1 | 4.9 µg/mL (≈ 14.8 µM)
Cc1cc2c(Nc3ccccc3)ncnc2s1.Cl | 13 µg/mL
O=C(NCC1CCCO1)c1ccc(N2C(=O)C3CCCCC3C2=O)cc1 (stereo not given) | 44.9 µg/mL (≈ 126 µM)
CC(NC(=O)c1cc(Br)cs1)C1CCCO1 (stereo not given) | > 45.6 µg/mL
CC1CN(CCc2ccccc2)C(C)C/C1=N/O (stereo not given) | 32 µg/mL (≈ 130 µM)
COc1cc(OC)c(CNC2CCCCCC2)cc1Br | > 51.3 µg/mL
O=C1OCCC1Sc1nnc(-c2ccc(Cl)cc2Cl)o1 (stereo not given) | > 49.7 µg/mL
COC(=O)CC(N)c1ccc(Br)cc1.Cl (stereo not given) | > 44.2 µg/mL
